Assay results published in patent US20110077263A1, “Methods and Compositions of Toll-Like Receptor (TLR) Agonists” (priority 2009, published 2011).

Columns and labels:
[1] = tested on: TLR7 and/or TLR8; conditions: cited from earlier work
[2] = tested on: LC exposed to HPV16 VLP; assay: CCR7 expression on LC by flow cytometry; assay type: cell-based, human; conditions: then treated
[3] = tested on: LC and LC exposed to HPV16 VLP; assay type: cell-based, human; conditions: LC, and LC exposed to HPV16 VLP and then stimulated; for IP-10, MCP-1 and RANTES (CCL5) secretion: data not shown; for IL-12p70, TNF-α, IL-6, IL-8 and MIP-1β concentrations in supernatant: versus negative controls
Description: (§1) DC and LC were harvested and washed twice with PBS. […] The cells were incubated for 1 h at 37° C., mixed occasionally, and finally placed at 37° C. for 24 h in complete medium containing 1000 U/ml rGM-CSF. LC were left untreated or exposed to HPV16 VLP at a concentration of 10 μg/10^6 cells. The cells were incubated for 1 h at 37° C., mixed occasionally, and placed at 37° C. for 24 h in complete medium containing 1000 U/ml rGM-CSF. […] DC and LC were harvested, washed, and analyzed by flow cytometry for the expression and surface markers. Additionally, untreated LC and LC exposed to HPV16 VLP were also analyzed for the expression of TLR7 and TLR8.
Supernatants were collected from LC stimulated in the imidazoquinolines activation assay and submitted to the Beckman Center for Immune Monitoring Core at the University of Southern California for cytokine and chemokine analysis. The assays were completed using Human Cytokine LINCOplex Kits (LINCO Research) and the Bio-Plex Suspension Array System (Bio-Rad).
Imidazoquinolines stimulate both an innate and an adaptive immune response. The innate immune response induced by imidazoquinolines drives the adaptive immune response into a Th1 cell-mediated response via the local cytokine and chemokine milieu generated primarily by activated macrophages and DC. Thus, Applicants wanted to determine whether selected imidazoquinolines could stimulate LC exposed to HPV16 VLP to produce a proinflammatory cytokine and chemokine profile similar to the cytokine milieu known to be generated by imidazoquinoline-activated DC. Cytokines and chemokines produced by untreated LC, LC exposed to HPV16 VLP, LC treated with each of the imidazoquinoline compounds, and LC exposed to HPV16 VLP and treated with the imidazoquinoline compounds were evaluated. Supernatant from each treatment was collected and analyzed using a human cytokine LINCOplex assay.

[4] = tested on: LC; conditions: Burns et al. 2000; Suzuki et al. 2000; cited from earlier work
[5] = tested on: LC exposed to HPV16 VLP; assay: Transwell migration assay toward CCL21; assay type: cell-based, human; conditions: then treated, 250 ng/ml CCL21, 3 h
Description: LC, HPV16 VLP-exposed LC, or HPV16 VLP-exposed LC treated with each of the imidazoquinolines, using the same concentrations as stated in the imidazoquinoline activation assay, to the upper chambers. The plates were incubated for 3 h at 37° C. Cells that migrated to the lower chamber were counted, and migration was calculated as the ratio of cells that migrated with/without CCL21.

[6] = tested on: DC; assay: Imidazoquinoline activation assay on DC, surface markers by flow cytometry; assay type: cell-based, human
[7] = tested on: LC; conditions: previous studies; cited from earlier work
[8] = tested on: LC and LC exposed to HPV16 VLP; assay type: cell-based, human; conditions: 5 μM 3M-002, 30 μM imiquimod, 30 μM resiquimod, 5 μM 3M-031, 24 h; for expression of surface markers (MHC class I, MHC class II, CD80, CD86) on LC exposed to HPV16 VLP: then treated; for expression of surface markers (MHC class I, MHC class II, CD80, CD86) on LC: LC not exposed to VLP
Description: For DC, plastic adherent cells were selected by plating 2×10^8 cells in a 175-cm^2 tissue culture flask for 2 h at 37° C. Nonadherent cells were washed away and the remaining cells were cultured for 7 days in complete medium containing 1000 U/ml rGM-CSF (Berlex) and 1000 U/ml rIL-4 (BioSource International), of which 100% was replenished on day 3 and 50% was replenished on day 6. For LC, adherent cells were cultured for 7 days in complete medium containing 1000 U/ml rGM-CSF, 1000 U/ml rIL-4, and 10 ng/ml rTGF-β1 (BioSource International), of which 100% was replenished on day 3, 50% of rGM-CSF and rIL-4 was replenished on day 6, and 100% of rTGF-β1 was replenished on days 3 and 6.
as §1
Each population of cells was harvested after the final incubation and analyzed by flow cytometry for the expression of surface markers.

[9] = tested on: LC; conditions: allogenic MLR; Burns et al. 2000; cited from earlier work
[10] = tested on: LC exposed to HPV16 cVLP with autologous CD8+ T cells; assay type: cell-based, human; conditions: then stimulated, versus untreated LC and LC exposed to cVLP
Description: Briefly, LC were left untreated or exposed to 10 μg of HPV16 cVLP for 1 h at 37° C. in PBS. Subsequently, the cells were incubated for 4 h in complete medium supplemented with 1000 U/ml rGM-CSF at 37° C. Then cells were treated with or without each of the imidazoquinolines and incubated for 20 h at 37° C. […] LC were irradiated (25 Gy) and mixed with autologous CD8^+ T cells isolated from PBL by positive selection using a MACS MulitSort CD8^+ isolation kit (Miltenyi Biotec). Day 7 and 14 re-stimulations were done with LC treated as indicated above. For this, the medium was supplemented with IL-2 at 50 U/ml at 48 and 96 h after re-stimulation. After 28 days, cells were pooled and tested for IFN-γ production by ELISPOT as a measurement of HPV16-E7-specific CD8^+ T cell responses. Briefly, 96-well multiscreen hemagglutinin plates (Millipore) were coated with 10 μg/ml anti-human IFN-γ in PBS overnight, washed with PBS/0.5% Tween 20, and blocked for 4 h with complete medium at 37° C./5% CO2. Then, 2.5×10^5 cells/well were incubated in the presence or absence of HPV16-E7 peptide aa 86-93 for 18 h at 37° C. […] Individual spots were counted after staining with 3-amino-9-ethyl-carbazole substrate (Sigma-Aldrich). Spots were counted using the video-imaging KS ELISPOT analysis system (Zeiss).

[11] = tested on: LC exposed to HPV16 L1L2 VLP; assay type: cell-based, human; conditions: co-stimulatory and activation molecules, Th1-promoting cytokines, HPV-specific T cells
Description: LC were left untreated or exposed to HPV16 L1L2 VLP for 18 h at 37° C. […] Cell supernatants were analyzed for IL-12 p40/p70 using a Bio-plex suspension bead ELISA (BioRad, Hercules, Calif.).

[12] = tested on: cervical intraepithelial neoplasia (CIN); conditions: cited from earlier work
[13] = tested on: LC; conditions: mouse model; Suzuki et al. 2000; cited from earlier work
[14] = tested on: high-risk HPV-induced vulvar intraepithelium neoplasia (VIN); conditions: van Seters et al. 2008; cited from earlier work
[15] = cited from earlier work

SMILES | Agonist receptor(s) [1] | expression of CCR7 [2] | IP-10, MCP-1 and RANTES (CCL5) secretion [3] | IL-12p70, TNF-α, IL-6, IL-8 and MIP-1β concentrations in supernatant [3] | phenotypic and functional activation of LC [4] | migration toward CCL21 [5] | expression of surface markers (MHC class I, MHC class II, CD80, CD86) on DC [6] | transcription of cytokine genes (TNF-α, IL-6, IL-12p40 mRNA) [7] | expression of surface markers (MHC class I, MHC class II, CD80, CD86) on LC exposed to HPV16 VLP [8] | expression of surface markers (MHC class I, MHC class II, CD80, CD86) on LC [8] | allostimulatory capacity of treated LC (T cell proliferation) [9] | HPV16 E7 86-93 epitope-specific CD8+ T cell response (IFN-γ ELISPOT) [10] | activation of HPV-exposed LC [11] | regression of cervical intraepithelial neoplasia (CIN) ([12]; clinical trials) | toxicity to the cervix ([12]; in vivo) | migration of LC [13] | treatment of high-risk HPV-induced VIN [14] | water solubility [15]
CCCc1nc2c(N)nc3ccccc3c2s1 [3M-002] | TLR8 |  |  |  |  |  |  |  |  |  |  |  |  |  |  |  |  | 
CCOCc1nc2c(N)nc3ccccc3c2n1CC(C)(C)O [resiquimod] | TLR8/7 | induced the up-regulation of CCR7 | highly secreted | statistically significantly elevated | do not phenotypically but functionally activate LC | significantly induced the migration | induced the up-regulation of surface markers | enhanced the transcription of the genes | significantly induced the up-regulation of the surface markers | significantly induced the up-regulation of surface marker | highly increased the allostimulatory capacity of LC | initiated a statistically significant HPV16 epitope-specific response | fully activated HPV treated LC |  |  |  |  | 
CC(C)Cn1cnc2c(N)nc3ccccc3c21 [imiquimod] | TLR7 | did not induce the expression of CCR7 | comparable amounts | comparable amounts |  | did not enhance CCL21-directed migration | induced the up-regulation of surface markers | enhanced the transcription of the genes | moderately increased the expression of surface markers | only a minor up-regulation of surface markers |  | did not induce a significant HPV16 epitope-specific immune response | did not activate HPV-exposed LC | has not led to regression | toxic to the cervix | induces the migration of LC | successful in treating | 
CCOCc1nc2c(N)nc3ccccc3c2[nH]1 [CL097] |  |  |  |  |  |  |  |  |  |  |  |  |  |  |  |  |  | ≥ 20 mg/mL
